What all share (assay): DTP human tumour cell line panel, 48 h
Experiment [1] concerns SNB-19.
Experiment [2] deals with HT-29.
Experiment [3] concerns IGROV-1.
For experiment [4], the system named is Malme-3M.
The subject of experiment [5] is EKVX.
The test system of experiment [6] is 786-0.
The test system of experiment [7] is MDA-N.
For experiment [8], the system named is HCT-15.
Experiment [9] deals with TK-10.
For experiment [10], the system named is OVCAR-3.
Experiment [11] has as its system HCT-116.
Experiment [12] relates to OVCAR-5.
For experiment [13], the system named is CCRF-CEM.
For experiment [14], the system named is UO-31.
In experiment [15] the test system is RXF 393.
Experiment [16] has as its system SN12C.
In experiment [17] the test system is HCC 2998.
The subject of experiment [18] is SF-295.
Experiment [19] deals with NCI-H460.
Experiment [20] concerns SR.

Broadly, the GI50 is the concentration giving 50% growth inhibition.

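1) Cells in 96-well plates. 2) Compound, 48 h, 5 concentrations. 3) Linear interpolation between surrounding doses. 4) Unreached endpoint = highest concentration. The concentration for 50% growth inhibition is given as GI50.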 The source made the active and inactive calls. No stated cut-off is given here; in the data, active = GI50 up to about 1.1 µM and inactive = higher. Bounds are passed on as bounds.

As to `Cc1csc(N/C=C2\C(=O)Oc3ccccc3C2=O)n1`, the GI50 in [1] was 33.7 µM (inactive); in experiment [2], 36 µM (inactive); in [3], 24.7 µM (inactive); in [4], 20.5 µM (inactive); in experiment [5] it was 21.3 µM (inactive); in experiment [6], 34.8 µM (inactive). In addition, the GI50 in [7] was 33.2 µM (inactive); in [8], 22.5 µM; in experiment [9] it was 17.1 µM (inactive); in experiment [10], 26.7 µM (inactive); in [11] it was 28.4 µM (inactive); in experiment [12], 58.6 µM (inactive). Moreover, the GI50 in [13] is 35.8 µM (inactive); in [14], 11.7 µM (inactive).
With `CCOC(=O)CC(=O)Nc1c(C(=O)OCC)sc2nc(SC)nc(Nc3ccc(OC)c(OC)c3)c12`, the GI50 in experiment [2] was 60.1 µM (inactive); in [3], 28.7 µM (inactive); in experiment [4], > 100 µM (inactive); in experiment [5] it was > 100 µM (inactive); in [6] it was 6.22 µM (inactive); in [7], > 100 µM (inactive). Moreover, the GI50 is 10.7 µM (inactive) in [15]; 60.3 µM (inactive) in experiment [16]; 39.9 µM in [8]; 17.8 µM (inactive) in experiment [9]; 10.7 µM (inactive) in [10]; > 100 µM (inactive) in experiment [17]. Further, the GI50 was 39.4 µM (inactive) in [11]; 52.6 µM (inactive) in experiment [12]; > 100 µM (inactive) in experiment [13]; > 100 µM (inactive) in [14]; 7.59 µM (inactive) in [18].
For `Cc1ccc(-c2c(N)nc(NC#N)nc2CCC(=O)Nc2ccccc2[N+](=O)[O-])cc1`, the GI50 in experiment [1], in [2], in experiment [3], in experiment [19], in experiment [4] and in experiment [5] was > 100 µM (inactive) each time. Further, the GI50 is > 100 µM (inactive) in experiment [6]; > 100 µM (inactive) in experiment [15]; > 100 µM (inactive) in [16]; > 100 µM (inactive) in [20]; greater than 100 µM in experiment [8]; > 100 µM (inactive) in experiment [9]. Also, the GI50 in experiment [10], in experiment [17], in experiment [11], in experiment [12], in [13] and in experiment [14] was > 100 µM (inactive) throughout. Besides, in experiment [18], the GI50 is > 100 µM (inactive).
Consider `O=[N+]([O-])c1ccc2c3ccccc3[s+]([O-])c2c1` (configuration not stated), for which the GI50 is > 100 µM (inactive) in [1]; > 100 µM (inactive) in experiment [2]; > 100 µM (inactive) in experiment [3]; > 100 µM (inactive) in experiment [19]; 30.5 µM (inactive) in experiment [4]; 35.2 µM (inactive) in experiment [5]. Also, the GI50 in experiment [6] is > 100 µM (inactive); in experiment [7] it was > 100 µM (inactive); in experiment [16], > 100 µM (inactive); in experiment [20] it was > 100 µM (inactive); in experiment [8], greater than 100 µM; in [9] it was > 100 µM (inactive). Also, the GI50 in experiment [10] was 33 µM (inactive); in [11], > 100 µM (inactive); in experiment [12], > 100 µM (inactive); in experiment [13], > 100 µM (inactive); in [18], > 100 µM (inactive).
Turning to `CNC(=O)OC(C)CN1c2ccccc2Sc2ccccc21` (configuration not stated), the GI50 in experiment [1] is > 100 µM (inactive); in experiment [2], 80 µM (inactive); in [3], 59.3 µM (inactive); in [19], 57.3 µM (inactive); in [4] it was > 100 µM (inactive); in experiment [5], 51.4 µM (inactive). The GI50 was 64.6 µM (inactive) in [6]; 36.2 µM (inactive) in [15]; > 100 µM (inactive) in experiment [16]; 86.3 µM (inactive) in experiment [20]; 32.1 µM in experiment [8]; > 100 µM (inactive) in [9]. Moreover, the GI50 was > 100 µM (inactive) in experiment [10]; > 100 µM (inactive) in experiment [17]; 57.5 µM (inactive) in experiment [11]; > 100 µM (inactive) in [12]; > 100 µM (inactive) in [13]; > 100 µM (inactive) in experiment [14]. Further, in [18], the GI50 was 45.1 µM (inactive).
For `CCOC(=O)C1C(c2ccccc2)=C(c2ccccc2)C(c2ccccc2)=C1c1ccccc1`, the GI50 is 18.8 µM (inactive) in [1]; > 100 µM (inactive) in [2]; 29.2 µM (inactive) in experiment [3]; 51.8 µM (inactive) in experiment [19]; 40.9 µM (inactive) in [4]; > 88.3 µM (inactive) in experiment [5]. In addition, the GI50 in [6] is 21 µM (inactive); in experiment [15] it was 15.3 µM (inactive); in [16], 50.7 µM (inactive); in experiment [20], 46.8 µM (inactive); in experiment [8], 72.1 µM; in [9], 23.4 µM (inactive). In addition, the GI50 is 26.3 µM (inactive) in experiment [10]; > 100 µM (inactive) in experiment [17]; 20.8 µM (inactive) in experiment [11]; > 100 µM (inactive) in experiment [12]; > 79.3 µM (inactive) in experiment [13]; 45.9 µM (inactive) in experiment [14]. Also, the GI50 in experiment [18] is 23.6 µM (inactive).
As to `OCC1OC(c2cccc3cc(O)c(O)cc23)CC1O` (configuration not stated), the GI50 in [1] was > 100 µM (inactive); in experiment [2], > 100 µM (inactive); in experiment [3], 64 µM (inactive); in [19], 80.7 µM (inactive); in [5], 45.4 µM (inactive); in experiment [6], > 100 µM (inactive). The GI50 in [7] is > 100 µM (inactive); in experiment [16] it was > 100 µM (inactive); in [8] it was greater than 100 µM; in experiment [9] it was > 100 µM (inactive); in experiment [10] it was 94.8 µM (inactive); in [17], > 100 µM (inactive). The GI50 in experiment [11], in [12], in experiment [14] and in [18] was > 100 µM (inactive) in each case.
Take `CCOC(=O)N[C@H]1CCc2cc(O)c(OC)c(OC)c2-c2ccc(SC)c(=O)cc21`: the GI50 in [1] was 0.0282 µM (active); in [2], < 0.0135 µM (active); in [3], 0.0479 µM (active); in experiment [19], 0.0172 µM (active); in [4], 0.0111 µM (active); in experiment [5] it was 0.483 µM (active). Moreover, the GI50 in [6] was 0.0304 µM (active); in experiment [15] it was < 0.01 µM (active); in experiment [16], 0.046 µM (active); in experiment [20], 0.0345 µM (active); in experiment [8] it was 0.0323 µM; in experiment [9] it was 0.394 µM (active). Moreover, the GI50 was 0.0123 µM (active) in experiment [10]; 0.113 µM (active) in experiment [17]; < 0.0138 µM (active) in experiment [11]; 0.614 µM (active) in experiment [12]; < 0.0139 µM (active) in experiment [13]; 0.736 µM (active) in experiment [14]. Further, the GI50 in experiment [18] was 0.0123 µM (active).
Regarding `Cc1c(Cl)c(C)c(Cl)c(O)c1Cl`, the GI50 is 30.5 µM (inactive) in [1]; 48.5 µM (inactive) in experiment [2]; 44.3 µM (inactive) in [3]; 24.7 µM (inactive) in [19]; 15.2 µM (inactive) in experiment [4]; 26.4 µM (inactive) in experiment [5]. For the same molecule, the GI50 was 43.3 µM (inactive) in experiment [6]; 24.6 µM (inactive) in [7]; 26 µM (inactive) in [15]; 24.2 µM (inactive) in experiment [16]; 21.8 µM in experiment [8]; 22.1 µM (inactive) in experiment [9]. For the same molecule, the GI50 in [10] was 19.5 µM (inactive); in experiment [17], 19.8 µM (inactive); in [11], 18.2 µM (inactive); in [12] it was 35.2 µM (inactive); in experiment [13], 33.7 µM (inactive); in experiment [14], 17.4 µM (inactive). Further, the GI50 in experiment [18] was 24.8 µM (inactive).
`CC1(C)[C@@H](Cn2ccc(=O)[nH]c2=O)CC[C@@]1(C)CO`: the GI50 in [1] is > 100 µM (inactive); in experiment [5], > 100 µM (inactive); in experiment [6] it was > 100 µM (inactive); in [7], > 100 µM (inactive); in experiment [15], 59.2 µM (inactive); in experiment [16], > 100 µM (inactive). Moreover, the GI50 was greater than 100 µM in experiment [8]; > 100 µM (inactive) in experiment [9]; 81.5 µM (inactive) in experiment [10]; > 100 µM (inactive) in experiment [17]; > 100 µM (inactive) in experiment [11]; > 100 µM (inactive) in [12]. Also, the GI50 in [13], in experiment [14] and in experiment [18] was > 100 µM (inactive) in each case.
Turning to `COc1cc(C2SCC(=O)N2c2ccc(-n3c(-c4ccccc4)nc4ccccc4c3=O)cc2)cc(OC)c1OC` (configuration not stated), the GI50 in experiment [1], in experiment [2], in experiment [3], in [19], in experiment [5] and in [6] was > 100 µM (inactive) throughout. Also, the GI50 in experiment [7] was > 100 µM (inactive); in experiment [16], > 100 µM (inactive); in [20], 45.4 µM (inactive); in experiment [8], 71.1 µM; in experiment [9], > 100 µM (inactive); in experiment [10], > 100 µM (inactive). In addition, the GI50 in experiment [17] was > 100 µM (inactive); in [11], > 100 µM (inactive); in [12], > 100 µM (inactive); in experiment [13], 69.7 µM (inactive); in experiment [14], 8.71 µM (inactive); in experiment [18], > 100 µM (inactive).
